Where two headings read alike, the source gives them in different places.
Tests used:
[1] = test system: mRNA encoding ATF3, IL-6 and BDNF; assay: Real time qRT-PCR of mRNA in DRG and lumbar spinal cord of CCI-SN rats; type: in vivo, rat; conditions: subchronic 10 mg/kg i.p. twice daily; ipsilateral L4-L6 DRG and dorsal quadrant of lumbar enlargement; 4 h after last injection
Method: (§1) Subchronic treatment consisted of twice daily injections of tapentadol (10 mg/kg, i.p. at 10:00 am and 6:00 pm) or saline for 4 days starting on the 15th day after nerve ligation in both CCI-ION and CCI-SN rats. Animals were further injected with tapentadol (10 mg/kg i.p.) or saline at 10:00 am the following day (19th day post-surgery), and assessment of allodynia with von Frey filament tests (see below) was made at various times up to 4 hours after this injection. All rats were killed by decapitation 4 hours after the last injection for real-time qRT-PCR determinations of specific mRNAs in ganglia and central tissues (see below).
Animals used for qRT-PCR procedure were decapitated immediately after performance of von Frey filament test four hours after the last injection of tapentadol or saline for subchronic treatment conditions (see above). […]
First-stranded cDNA synthesis (from 660 ng total RNA per 20 μl reaction mixture) was carried out using SuperScript™ III Reverse Transcriptase and random primers (250 ng per reaction), as recommended by the manufacturer (Invitrogen, Cergy Pontoise, France). […] Semi-quantitative determinations were made with reference to the reporter gene encoding glyceraldehyde 3-phosphate dehydrogenase (GaPDH; Rn99999916_sl). […] Specific mRNA levels were calculated after normalizing from GaDPH mRNA in each sample (Latrémolière et al., 2008). […]

CCI-SN rats = type: in vivo, rat
Method: Male Sprague-Dawley rats (Charles River Laboratories, L'Arbresle, France), weighing 150-200 g on arrival, were used. Animals were maintained under controlled environmental conditions (22±1° C., 60% relative humidity, 12 h/12 h light/dark cycle, food and water ad libitum) starting from reception in the laboratory, for at least 1 week before any intervention or treatment and thereafter, until euthanasia.
Rats were anaesthetized as above and the common sciatic nerve was exposed. Using a dissection microscope (2× magnification), four chromic catgut (5-0) ligations were tied loosely with about 1 mm spacing, proximally to the sciatic trifurcation (Bennett and Xie, 1988). Finally, the skin and muscle were sewed using silk sutures (4-0). In sham-operated animals, the same surgery was performed, but the nerve was not ligated.
Tapentadol (1, 3 and 10 mg/kg i.p.), reboxetine (10 mg/kg i.p.), morphine (1 and 3 mg/kg s.c.) or their vehicle (0.9% NaCl) were injected acutely 14 days after surgery, when allodynia/hyperalgesia reached a plateau in both CCI-SN and CCI-ION rats. Behavioral tests were performed at various times for up to 4 h after injection. In drug association procedure, reboxetine or saline was administered 15 min before morphine or saline.
as §1
Before testing, each rat was habituated for 2 h as above, and mechanical sensitivity was then determined with a graded series of […] von Frey filaments, that produced a bending force of 6, 8, 10, 12, 15, 26, and 60 g, respectively. The stimuli were applied within the SN territory (lateral part of the hind paw sole). Each filament was tested three times on the nerve-injured side in increasing order starting with the filament producing the lowest force. As for the CCI-ION rats, the von Frey filaments were applied at least 3 seconds after the rat had returned to its initial resting state. The minimal force filament for which animals presented either a brisk paw withdrawal and/or an escape attempt in response to at least 2 out of the 3 stimulations allowed determination of the mechanical response threshold. The 60.00 g filament was chosen as the cutoff threshold to inhibit any tissue injury.
A—Two weeks after unilateral chronic constriction injury to the sciatic nerve, pressure threshold values (as g) to trigger nocifensive responses to von Frey filaments application onto the plantar surface of ipsilateral hindpaw were determined at various times after acute injection of tapentadol (1, 3 or 10 mg/kg, i.p.) or saline. B—On day 15 (D on abscissa) after nerve ligation, rats were treated subchronically with tapentadol (10 mg/kg, i.p., twice daily, at 10:00 AM and 6:00 PM) or saline for four days. On the following day (day 19 after surgery), both tapentadol- and saline-pretreated CCI-SN rats were injected with tapentadol (10 mg/kg, i.p.; 0 on abscissa) and then subjected to von Frey filaments' test applied to ipsilateral hindpaw for determination of pressure threshold values (as g) at various times thereafter.

In the case of `CC[C@@H](c1cccc(O)c1)[C@@H](C)CN(C)C` [Tapentadol, (−)-(1R,2R)-3-(3-dimethylamino-1-ethyl-2-methyl-propyl)-phenol], the “levels of mRNA encoding ATF3, IL-6 and BDNF, tapentadol vs saline” value [1] is reported as “not significantly different”, the “anti-allodynic effect after subchronic pretreatment vs saline pretreatment” value (CCI-SN rats; 10 mg/kg i.p. twice daily for four days, challenge 10 mg/kg i.p. day 19) is reported as “produced the same anti-allodynic effects” and the “increase in pressure threshold value” (CCI-SN rats; acute 1 mg/kg i.p., first 15-30 min after injection, non significant) is reported as “approximately 40%”. For the same molecule, the “pressure threshold values (anti-allodynic effect)” value (CCI-SN rats; acute 3 mg/kg i.p.) was “also increased pressure threshold values, but to a lower extent than 10 mg/kg i.p”, the “pressure threshold values (anti-allodynic effect)” value (CCI-SN rats; acute 10 mg/kg i.p., 15-30 min after administration) was “no longer differed from healthy control values” and the mechanical allodynia (CCI-SN rats; acute 10 mg/kg i.p., 90 min after injection) was “mechanical allodynia did not significantly differ from that measured in saline-treated CCI-SN rats”.

Source: patent publication US10813891B2, “Method of inhibiting chronification of pain” (priority 2011, dated 2020)
